Measurements from article PMC3428910 (Bioorganic & medicinal chemistry letters, 2006).

Target: T1, human glutathione reductase (hGR) (Homo sapiens, UniProt P00390)
T1 sequence (P00390 44-522): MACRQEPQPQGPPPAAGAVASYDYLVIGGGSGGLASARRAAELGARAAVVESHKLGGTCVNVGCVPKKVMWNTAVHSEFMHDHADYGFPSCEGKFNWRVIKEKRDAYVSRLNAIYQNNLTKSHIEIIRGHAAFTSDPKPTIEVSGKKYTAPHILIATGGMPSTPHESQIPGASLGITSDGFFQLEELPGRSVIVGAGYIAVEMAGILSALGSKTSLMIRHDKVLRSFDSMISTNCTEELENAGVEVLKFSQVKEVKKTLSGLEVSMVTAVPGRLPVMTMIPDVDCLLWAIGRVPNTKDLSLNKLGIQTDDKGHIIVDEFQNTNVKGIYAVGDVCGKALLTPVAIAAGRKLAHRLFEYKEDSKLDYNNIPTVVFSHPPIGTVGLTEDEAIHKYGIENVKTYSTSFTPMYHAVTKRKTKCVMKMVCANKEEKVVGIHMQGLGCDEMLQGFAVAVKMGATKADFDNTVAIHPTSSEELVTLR
Test: Human glutathione reductase inhibition
Type: biochemical
Conditions: GR IC50/TR IC50

Selectivity for TR: >4
SMILES: CC(C)(C)c1cc(CN2CCCCCC2)cc(C(C)(C)C)c1O [Compound 7c]
